# Reference: ChEMBL document CHEMBL1137435, “Synthesis and application of 2'-fluoro-substituted cap analogs” (Bioorg Med Chem Lett, 2007)
# Test: Capping efficiency on mRNA after 2 hrs by gel shift assay
row,Activity [%],SMILES
1,52,C[n+]1cn([C@@H]2O[C@H](COP(=O)([O-])OP(=O)([O-])OP(=O)(O)OC[C@@H]3O[C@H](n4c[n+](C)c5c(=O)[nH]c(N)nc54)[C@@H](F)[C@H]3O)[C@@H](O)[C@H]2O)c2nc(N)[nH]c(=O)c21
2,70,C[n+]1cn([C@H]2O[C@@H](COP(=O)([O-])OP(=O)(O)OP(=O)(O)OC[C@H]3O[C@@H](n4cnc5c(=O)[nH]c(N)nc54)[C@H](O)[C@@H]3O)[C@H](O)[C@@H]2F)c2nc(N)[nH]c(=O)c21
3,61,C[n+]1cn([C@H]2O[C@@H](COP(=O)([O-])OP(=O)(O)OP(=O)(O)OC[C@H]3O[C@@H](n4cnc5c(=O)[nH]c(N)nc54)[C@H](O)[C@@H]3O)[C@H](O)[C@@H]2O)c2nc(N)[nH]c(=O)c21
